Experimental data published in PMC8262977, “A Dual-Specificity Inhibitor Targets Polyphosphate Kinase 1 and 2 Enzymes To Attenuate Virulence of Pseudomonas aeruginosa” (mBio, 2021).

How the values were obtained:
[1] = molecular target: T1, P. aeruginosa PPK2A (Pseudomonas aeruginosa, UniProt Q9I6Z1); experiment: PPK2A ADP phosphorylation by polyP (ATP synthesis), toluidine blue detection; assay type: biochemical; conditions: ATP synthesis from ADP and polyP; 275 nM enzyme; read-out: IC50 PPK2A
T1 construct: residues P9 to P289; MBP (N, cleaved yes); His tag (N, cleaved yes); made in house; host or cells: E. coli BL21(DE3)
T1 sequence (Q9I6Z1 68-348): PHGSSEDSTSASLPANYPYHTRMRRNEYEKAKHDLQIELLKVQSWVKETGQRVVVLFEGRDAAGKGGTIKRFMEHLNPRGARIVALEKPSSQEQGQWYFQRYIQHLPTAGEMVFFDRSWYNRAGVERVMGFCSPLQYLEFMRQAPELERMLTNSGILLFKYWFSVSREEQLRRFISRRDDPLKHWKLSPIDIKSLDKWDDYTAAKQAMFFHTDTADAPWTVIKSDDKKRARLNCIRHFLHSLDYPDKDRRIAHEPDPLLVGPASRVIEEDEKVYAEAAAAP
Protocol: (§1) All IC50 and kinetic assay mixtures contained equimolar amounts (275 nM) of PPK to ensure valid comparison between different enzymes. PolyP synthesis activity (for PPK1 and PPK2B) was assayed using the reaction buffer and conditions described above. ATP concentration was varied as indicated for kinetic experiments. Curves were fit using GraphPad Prism V9.
(§2) Nucleotide phosphorylation activity of PPK2 enzymes was assayed in buffer containing 50 mM Tris-HCl, pH 7.5, 10 mM (NH4)2SO4, 10 mM MgCl2, 5 mM polyP45 (Sigma; in terms of individual Pi monomers), and nucleotide (ADP or AMP) at 5 mM for IC50 reactions or as indicated for kinetic experiments. Enzyme was added to a final concentration of 275 nM in 100-μl reaction volumes. One-hundred-microliter reaction mixtures were incubated at 37°C for 30 min, and then 5-μl aliquots were withdrawn and added to 1,000 μl of 6-mg/liter toluidine blue dissolved in 40 mM acetic acid to quench the reaction and quantify the polyP that remained. The A630/530 nm ratio was then recorded, and the values obtained were corrected by subtracting the corresponding blanks (all ingredients except enzyme). The amount of polyP consumed was calculated by subtracting the amount present after reaction from that present in the initial reaction mix, as calculated via a standard curve. Each monomer of Pi consumed from polyP equates to one nucleoside phosphorylated. Curves were fit using GraphPad Prism V9.

[2] = molecular target: T2, P. aeruginosa PPK2C (Pseudomonas aeruginosa, UniProt Q9HYF1); experiment: PPK2C AMP phosphorylation by polyP (ADP synthesis), toluidine blue detection; assay type: biochemical; conditions: ADP synthesis from AMP and polyP; 275 nM enzyme; read-out: IC50 PPK2C
T2 construct: MBP (N, cleaved yes); His tag (N, cleaved yes); made in house; host or cells: E. coli BL21(DE3)
T2 sequence (Q9HYF1 whole entry): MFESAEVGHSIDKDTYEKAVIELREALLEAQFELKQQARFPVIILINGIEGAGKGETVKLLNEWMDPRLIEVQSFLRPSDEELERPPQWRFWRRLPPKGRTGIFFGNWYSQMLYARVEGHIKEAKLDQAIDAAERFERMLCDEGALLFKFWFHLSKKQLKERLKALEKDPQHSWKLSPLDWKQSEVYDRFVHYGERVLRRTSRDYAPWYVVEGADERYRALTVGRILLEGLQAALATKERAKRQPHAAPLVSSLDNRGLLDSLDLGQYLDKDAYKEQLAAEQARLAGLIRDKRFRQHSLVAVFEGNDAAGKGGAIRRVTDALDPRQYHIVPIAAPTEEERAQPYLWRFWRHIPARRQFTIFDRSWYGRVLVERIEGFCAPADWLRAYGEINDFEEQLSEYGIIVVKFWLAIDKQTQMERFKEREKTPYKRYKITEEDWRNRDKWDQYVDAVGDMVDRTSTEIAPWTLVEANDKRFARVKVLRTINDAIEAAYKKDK
Protocol: as §1, §2

[3] = test system: P. aeruginosa PA14; experiment: Bacterial polyP accumulation assay after phosphate starvation; assay type: cell-based, Pseudomonas aeruginosa
Protocol: P. aeruginosa polyP levels following nutrient deprivation in morpholinepropanesulfonic acid (MOPS) minimal medium were assessed as described previously ([8]), with slight variations. Briefly, overnight cultures were grown in 5 ml LB in the presence of inhibitor or DMSO as indicated. Cultures were centrifuged for 10 min at 3,900 rpm to pellet cells, which were then resuspended in MOPS minimal medium containing 100 μM phosphate and the indicated quantity of inhibitor or DMSO. Cultures were incubated at 37°C for 2 h to allow polyP accumulation and then subsequently pelleted, resuspended in guanidinium thiocyanate (GITC) lysis buffer, and boiled at 95°C for 5 min. PolyP was purified via silica spin column as described previously ([8]), with the exception of using 50 nM PPK2A instead of E. coli PPK to convert polyP to ATP. An Invitrogen ATP determination kit (ThermoFisher) was used per the manufacturer’s instructions for ATP quantification. Luminescence was recorded on a SpectraMax iD3 microplate reader (Molecular Devices).

[4] = test system: P. aeruginosa PA14; experiment: Biofilm assay, crystal violet staining; assay type: cell-based, Pseudomonas aeruginosa
Protocol: P. aeruginosa biofilms were quantified as described previously ([54]). Briefly, M63 medium supplemented with 1 mM MgSO4 and 0.4% arginine as the sole carbon source was colony inoculated with PA14. Biofilms were allowed to form in 96-well tissue culture plates (U-bottom; Sarstedt) at 37°C for 16 h. Wells were washed twice with sterile water. Biofilm rings were stained with 0.1% crystal violet, washed twice with water, and then solubilized in 30% acetic acid to record absorbance at 570 nm.

[5] = test system: P. aeruginosa; experiment: C. elegans liquid killing (LK) infection assay; assay type: in vivo, Caenorhabditis elegans; conditions: 100 μM gallein
Protocol: (§3) Wild-type N2 C. elegans and the glp-4 conditionally sterile mutant strain were obtained from the Caenorhabditis Genetics Center. Liquid killing assays were conducted using glp-4 mutant worms as described previously ([35]), with the exception of survival being scored manually under a Zeiss light microscope instead of via Sytox Orange staining. Nematodes were scored as dead when they no longer moved when tapped. Solid killing was conducted using glp-4 as described previously ([34]), with the indicated concentration of inhibitor impregnated into the SK agar. Bacterial CFU accumulation in WT N2 worms was quantified as described previously ([56]). Briefly, age-synchronized embryos were spotted onto bacterium-seeded nematode growth medium (NGM) agar plates impregnated with inhibitor or DMSO. Embryos were incubated at 25°C for 3 days, after which point adult worms were harvested, washed, lysed, and enumerated for CFU.

[6] = test system: P. aeruginosa; experiment: Bacterial CFU accumulation in the C. elegans gut; assay type: in vivo, Caenorhabditis elegans
Protocol: as §3

[7] = test system: P. aeruginosa; experiment: Antibiotic synergy in the C. elegans LK model; assay type: in vivo, Caenorhabditis elegans; conditions: for protection of C. elegans in combination with antibiotic: LK assay
Protocol: Assessment of antibiotic synergy in the C. elegans model was adapted from previously described protocols ([25]). Briefly, glp-4 C. elegans worms were incubated at 25°C with P. aeruginosa and the indicated amount of gallein or DMSO in LK medium as described above. After 24 h, antibiotics were added. After another 24 h, C. elegans survival was scored as described above.

[8] = test system: HEK293T cells; experiment: HEK293T cytotoxicity assay, trypan blue; assay type: cell-based, human; conditions: concentrations up to 100 μM, 48 h incubation
Protocol: HEK293 cells were grown in Dulbecco’s modified Eagle’s medium supplemented with 10% fetal bovine serum at 5% CO2 and 37°C. Cells were grown until a confluent monolayer was formed in 12-well culture plates, at which point inhibitors or DMSO was added. After 48-h incubation, cells were detached with trypsin and percent viability was scored via a hemocytometer and trypan blue staining.

[9] = design: method as in PMID 29084601, PMID 24703913, PMID 30024944; conditions: rats, 5 to 10 mg/kg of body weight daily for up to 8 weeks; cited from earlier work
[10] = WT: DMSO control vs 100 µM gallein
[11] = Δppk1: DMSO control vs 100 µM gallein

O=C1OC2(c3ccccc31)c1ccc(O)c(O)c1Oc1c2ccc(O)c1O [RT4 (gallein), gallein]
IC50 [1]: 16 ± 3 µM
IC50 [2]: 165 ± 5 µM
polyP levels ([3]; WT, phosphate starvation medium, nonbactericidal amounts): reduced wild-type (WT) polyP levels in a dose-dependent manner
Bacterial polyP accumulation, Mean Diff. [3, 10]: 68.65
Bacterial polyP accumulation, Mean Diff. ([3]; Δppk1, Δppk2A, Δppk2B, Δppk2C: DMSO control vs 100 µM gallein): 2.148
Bacterial polyP accumulation, Mean Diff. [3, 11]: 29.11
polyP levels ([3]; Δppk1 strain): significantly reduced polyP levels
polyP levels ([3]; Δppk1 Δppk2A Δppk2B Δppk2C (ΔpolyP) strain): had no effect
polyP levels ([3]; Δppk2A Δppk2B Δppk2C strain): reduced polyP in this strain to a similar extent as that in the WT
Bacterial polyP accumulation, Mean Diff. ([3]; Δppk2A, Δppk2B, Δppk2C: DMSO control vs 100 µM gallein): 74.9
Biofilm formation, Mean Diff. [4, 10]: 0.1666
biofilm formation ([4]; WT, reduction dose dependent): reduced biofilm formation
biofilm formation ([4]; ΔpolyP strain): no significant effect
Biofilm formation, Mean Diff. ([4]; Δppk1, 2a, 2b, 2c: DMSO control vs 100 µM gallein): 0.005375
Biofilm formation, Mean Diff. [4, 11]: 0.08825
biofilm formation ([4]; Δppk1 strain): further decreased biofilm formation
Biofilm formation, Mean Diff. ([4]; Δppk2a, 2b, 2c: DMSO control vs 100 µM gallein): 0.08488
biofilm formation ([4]; Δppk2 strain): further decreased biofilm formation
C. elegans survival [5]: significantly improved survival rates
bacterial accumulation in the nematode gut ([6]; WT strain): reduced bacterial accumulation in the nematode gut
C. elegans accumulation CFU, Mean Diff. [6, 10]: 783.3
bacterial accumulation in the nematode gut (CFU) ([6]; ΔpolyP strain): no additional decrease in CFU
bacterial accumulation in the nematode gut ([6]; Δppk1 strain): further reduced bacterial accumulation
C. elegans accumulation CFU, Mean Diff. ([6]; ∆polyP: DMSO control vs 100 µM gallein): -33.33
C. elegans accumulation CFU, Mean Diff. ([6]; ∆ppk1: DMSO control vs 100 µM gallein): 446.7
C. elegans antibiotic synergy, Mean Diff. ([7]; Cipro (0.75 µg/mL) DMSO vs Cipro (0.75 µg/mL) + 100 µM gallein): -47.1
protection of C. elegans in combination with antibiotic ([7]; in combination with ciprofloxacin): achieved greater protection of C. elegans than did gallein or antibiotics alone
protection of C. elegans in combination with antibiotic ([7]; in combination with tetracycline): achieved greater protection of C. elegans than did gallein or antibiotics alone
C. elegans antibiotic synergy, Mean Diff. ([7]; No antibiotic DMSO vs Cipro (0.75 µg/mL) + 100 µM gallein): -35.08
C. elegans antibiotic synergy, Mean Diff. ([7]; No antibiotic DMSO vs No antibiotic + 100 µM gallein): -16.19
C. elegans antibiotic synergy, Mean Diff. ([7]; No antibiotic DMSO vs Tet (10 µg/mL) + 100 µM gallein): -38.97
C. elegans antibiotic synergy, Mean Diff. ([7]; Tet (10 µg/mL) DMSO vs Tet (10 µg/mL) + 100 µM gallein): -49.51
cytotoxicity [8]: noncytotoxic
adverse effects [9]: no adverse effects
